# According to patent publication US11584709B2, “Multitarget drug for treating diseases in mammals” (“PHARMENTERPRISES EURASIA” LIMITED LIABILITY COMPANY, priority 2017, dated 2023):
# Key:
# NF-kB signaling pathway = experiment: Activity of NF-kB signaling pathway, Jurkat lacZ reporter; format: cell-based; conditions: Homo sapiens; inhibitor; Jurkat T lymphocytes, β-galactosidase reporter, substrate FDG
# [1] = Stability in blood plasma, human; format: in vitro ADME; conditions: 1 μM, 37° C.
# Description: (§1) Compound 1 at a concentration of 1 μM was incubated for 24 hours in the blood plasma of human and various animal species (rats, mice, guinea pigs, rabbits, horses, dogs, bull, pygmy hogs) at 37° C. Aliquots were taken at time points of 0, 0.25, 1, 2, 4, 8 and 24 hours. In the case of blood plasma of rabbits and monkeys, Compound 1 was incubated for 4 hours, and aliquots were taken at time points 0, 0.25, 1, 4. After the protein precipitation with acetonitrile, samples were analyzed by HPLC-MS/MS to determine the concentration of Compound 1. Verapamil was used as a stable control.
# [2] = Stability in blood plasma, monkey; format: in vitro ADME; conditions: 1 μM, 37° C.
# Description: as §1
# [3] = target: T1, prokineticin receptor type 2 (PK2) (Homo sapiens, UniProt Q8NFJ6); experiment: Activity of prokineticin receptors type 2 (PK2), intracellular calcium, HEK-293 cells; format: cell-based; conditions: antagonist, PK2 agonist (2 nM)
# T1 construct: expressed in transfected cells; host or cells: HEK-293 cells
# Description: Compound 1 was dissolved in DMSO to a concentration of 100 mM; then a stock solution was serially diluted with DMSO. The maximum starting concentration of the substance is 100 μM. The effect was determined at 5 concentrations of the tested compounds, each concentration was studied twice. HEK-293 cells expressing prokinetycin receptors PK2 were used in the experiment, these cells, after preincubation with a PK2 agonist (2 nM), were incubated with the test compound. The activity of receptors was determined according to the intracellular calcium concentration by the fluorescence spectroscopy (Mol Pharmacol. 2005 June; 67(6):2070-6).
# [4] = Stability in blood plasma, rat; format: in vitro ADME; conditions: for Content, % from the initial, Mean (n = 2): rat blood plasma, 1 μM, 37° C.
# Description: as §1
# [5] = target: T2, tachykinin receptor type 2 (NK2R) (Homo sapiens, UniProt P21452); experiment: Activity of tachykinin receptor type 2 (NK2R), intracellular calcium, CHO cells; format: cell-based; conditions: antagonist, [Nleu10]-NKA-(4-10) (10 nM) agonist
# T2 construct: expressed in transfected cells; host or cells: CHO cells
# T2 sequence (P21452 1-398): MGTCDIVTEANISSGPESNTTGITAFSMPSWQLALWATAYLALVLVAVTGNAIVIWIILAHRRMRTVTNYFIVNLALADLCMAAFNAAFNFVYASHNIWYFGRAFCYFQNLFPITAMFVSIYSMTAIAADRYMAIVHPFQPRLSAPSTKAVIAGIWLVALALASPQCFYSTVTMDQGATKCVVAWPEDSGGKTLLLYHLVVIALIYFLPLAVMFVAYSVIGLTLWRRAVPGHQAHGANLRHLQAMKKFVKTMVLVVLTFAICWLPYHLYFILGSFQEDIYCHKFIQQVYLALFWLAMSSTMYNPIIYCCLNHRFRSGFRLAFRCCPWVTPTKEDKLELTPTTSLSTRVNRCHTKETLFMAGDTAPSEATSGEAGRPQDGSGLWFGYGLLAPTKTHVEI
# Description: Compound 1 was dissolved in DMSO to a concentration of 100 mM; then a stock solution was serially diluted with DMSO. The maximum starting concentration of the substance is 100 μM. The effect was determined at 5 concentrations of the tested compounds, each concentration was studied twice. CHO cells expressing NK2R were used in the experiment, said sells, after the preincubation with an [Nleu10]-NKA-(4-10) (10 nM) agonist, were incubated with the test compound. The activity of receptors was determined according to the intracellular calcium concentration by fluorescence spectroscopy (Biochem Biophys Res Commun. 1994 May 16; 200(3):1512-20).
# [6] = Chronic (90-day) oral administration, body weight of rabbits; format: in vivo, Chinchilla rabbits; conditions: for period in which the lag in body weight gain was observed: female rabbits, daily intragastric
# Description: The effect of 90-day, oral administration of Compound 1 in doses of 1.5 mg/kg, 7.5 mg/kg and 15 mg/kg on the body weight of male and female Chinchilla rabbits was studied.
# [7] = target: T3, bradykinin receptors B1 (BRDKB1) (Homo sapiens, UniProt P46663); experiment: Activity of bradykinin receptor BRDKB1, intracellular calcium, CHO cells; format: cell-based; conditions: antagonist, LysdesArg9-BK agonist (3 nM)
# T3 construct: expressed in transfected cells; host or cells: CHO cells
# T3 sequence (P46663 1-353): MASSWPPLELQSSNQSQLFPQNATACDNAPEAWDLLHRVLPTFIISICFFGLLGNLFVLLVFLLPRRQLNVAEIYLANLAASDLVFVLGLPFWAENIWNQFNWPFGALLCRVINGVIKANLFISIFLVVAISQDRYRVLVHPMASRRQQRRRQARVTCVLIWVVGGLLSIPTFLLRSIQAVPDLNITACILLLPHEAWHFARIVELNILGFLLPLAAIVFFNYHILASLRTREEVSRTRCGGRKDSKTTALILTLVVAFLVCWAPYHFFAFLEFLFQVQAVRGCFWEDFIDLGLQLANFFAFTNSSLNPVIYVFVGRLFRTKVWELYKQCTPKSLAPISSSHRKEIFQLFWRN
# Description: Compound 1 was dissolved in DMSO to a concentration of 100 mM; then a stock solution was serially diluted with DMSO. The maximum starting concentration of the substance is 100 μM. The effect was determined at 5 concentrations of the tested compounds, each concentration was studied twice. CHO cells expressing bradykinin receptors B1 were used in the experiment, these cells, after preincubation with a LysdesArg9-BK agonist (3 nM), were incubated with the test compound. The activity of receptors was determined according to the intracellular calcium concentration by fluorescence spectroscopy (Eur J Pharmacol. 2000 Mar. 24; 392(1-2):1-9).
# [8] = Stability in blood plasma, dog; format: in vitro ADME; conditions: 1 μM, 37° C.
# Description: as §1
# [9] = 90-day oral, 1.5, 7.5 and 15 mg/kg, male and female rabbits
# T1 sequence (Q8NFJ6 whole entry): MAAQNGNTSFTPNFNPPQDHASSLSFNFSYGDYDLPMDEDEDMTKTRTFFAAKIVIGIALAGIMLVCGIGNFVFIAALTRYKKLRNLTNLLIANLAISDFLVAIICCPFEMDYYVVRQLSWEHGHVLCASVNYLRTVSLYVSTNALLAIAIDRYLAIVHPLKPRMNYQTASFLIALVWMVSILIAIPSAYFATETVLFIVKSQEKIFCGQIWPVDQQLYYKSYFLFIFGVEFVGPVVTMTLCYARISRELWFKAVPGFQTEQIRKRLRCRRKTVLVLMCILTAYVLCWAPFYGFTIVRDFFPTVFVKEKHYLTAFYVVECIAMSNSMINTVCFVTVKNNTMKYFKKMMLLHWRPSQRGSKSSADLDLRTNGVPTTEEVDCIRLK
smiles,measurement,setting,value
"O=C(Cc1ccc(O)cc1)N[C@@H](Cc1ccccc1)C(=O)OCc1ccccc1 [Compound 1, benzyl (2S)-2-[2-(4-hydroxyphenyl)acetamido]-3-phenylpropanoate]",IC50,NF-kB signaling pathway,9.9 µM
same,"Content, % from the initial, Mean (n = 2)",[1]; 0 hour,100%
same,"Content, % from the initial, Mean (n = 2)",[1]; 0.25 hour,85.4%
same,"Content, % from the initial, Mean (n = 2)",[1]; 1 hour,70.3%
same,"Content, % from the initial, Mean (n = 2)",[1]; 2 hour,50.1%
same,"Content, % from the initial, Mean (n = 2)",[1]; 4 hour,32.1%
same,"Content, % from the initial, Mean (n = 2)",[1]; 8 hour,16.4%
same,"Content, % from the initial, Mean (n = 2)",[1]; 24 hour,0.00%
same,"Content, % from the initial, Mean (n = 2)",[2]; 0 hour,100%
same,"Content, % from the initial, Mean (n = 2)",[2]; 0.25 hour,38.3%
same,"Content, % from the initial, Mean (n = 2)",[2]; 1 hour,1.69%
same,"Content, % from the initial, Mean (n = 2)",[2]; 4 hour,0.00%
same,IC50,[3],5.4 µM
same,hydrolysis in the blood plasma (in words),"[4]; blood plasma of rats, after 15 minutes",almost completely hydrolyzed
same,"Content, % from the initial, Mean (n = 2)",[4]; 0 hour,100%
same,"Content, % from the initial, Mean (n = 2)",[4]; 0.25 hour,0.00%
same,"Content, % from the initial, Mean (n = 2)",[4]; 1 hour,0.00%
same,"Content, % from the initial, Mean (n = 2)",[4]; 2 hour,0.00%
same,"Content, % from the initial, Mean (n = 2)",[4]; 4 hour,0.00%
same,"Content, % from the initial, Mean (n = 2)",[4]; 8 hour,0.00%
same,"Content, % from the initial, Mean (n = 2)",[4]; 24 hour,0.00%
same,IC50,[5],8.4 µM
same,"general condition, appearance, and mobility",[6]; [9],satisfactory and did not differ in the experimental and control groups
same,weight gain compared with parallel controls,[6]; [9],somewhat lagging behind in weight gain
same,feed and water intake,[6]; accompanying the decrease in body weight gain,decrease in feed and water intake
same,period in which the lag in body weight gain was observed,[6]; 7.5 mg/kg,"practically, during the entire period of the drug administration"
same,period in which the lag in body weight gain was observed,[6]; 15 mg/kg,"practically, during the entire period of the drug administration"
same,dynamics of the body weight in the recovery period,"[6]; recovery period, control versus experimental animals",no differences in the dynamics of the body weight
same,IC50,[7],3.7 µM
same,"Content, % from the initial, Mean (n = 2)",[8]; 0 hour,100%
same,"Content, % from the initial, Mean (n = 2)",[8]; 0.25 hour,110%
same,"Content, % from the initial, Mean (n = 2)",[8]; 1 hour,79.1%
same,"Content, % from the initial, Mean (n = 2)",[8]; 2 hour,80.6%
same,"Content, % from the initial, Mean (n = 2)",[8]; 4 hour,67.2%
same,"Content, % from the initial, Mean (n = 2)",[8]; 8 hour,54.1%
same,"Content, % from the initial, Mean (n = 2)",[8]; 24 hour,33.8%
